Source: US9474788B2, “Methods for the reactivation of latent HIV using cytosine methylation inhibitors and NF-KB activators” (priority 2010, dated 2016)
Where two headings read alike, the source gives them in different places.

Experiments:
Assay type in all cases: cell-based
HIV-1 transcription = test: Reverse transcription and quantitative PCR of HIV-1 mRNA in J-Lat cells; details: 24 hours, 40 ng/ml cycloheximide
Description: (§1) Jurkat and J-Lat cells were cultured in RPMI (Invitrogen) with 5% FBS (Gemini Bio-Products) and 5% Fetalplex (Gemini Bio-Products). For analysis of virus reactivation by flow cytometry, aza-CdR (Sigma) and TNF-α (Biosource) treatments were for 24 h, after which medium was replaced. Reactivation was assayed after an additional 48 h. For chromatin immunoprecipitation (ChIP) and bisulfite-mediated methylcytosine mapping, cells were treated for 30 h with aza-CdR. For cycloheximide experiments, cells were treated for 24 hours, either with or without 40 ng/ml cycloheximide.
J-Lat cells were transfected with short interfering RNAs (siRNAs) corresponding to the MBD2 mRNA or non-targeting control short interfering RNAs (siRNAs) (siGENOME SMARTpool or siCONTROL pool, Dharmacon) by electroporation using Kit R and program O-28 (Amaxa Biosystems). […] Quantitative PCR was performed with the 7900HT Sequence Detection System (Applied Biosystems) and the 2× Hot Sybr real time PCR kit (Molecular Cloning Laboratories), with each PCR reaction receiving 1/20 of the reverse transcription. […] SDS 2.3 software (Applied Biosystems) was used to quantify each cDNA relative to cyclophilin A and to confirm the specificity of each PCR reaction by melting curve analysis.

latent HIV-1 [1] = tested on: latent HIV-1
Description: as §1
J-Lat cells were transfected by electroporation using Kit R and program O-28 (Amaxa Biosystems). HIV-1 reactivation was assayed by flow cytometry four days post-transfection. […] Supernatant was harvested 48 h post-transfection and frozen at −80° C. in aliquots. Aliquots were thawed, diluted 1:160, and used to infect Jurkat T cells overnight at a multiplicity of 0.1 infectious units per cell with 2 ml supernatant per 1 million cells. Three days post-infection, GFP-negative and -positive cell populations were isolated by fluorescence-activated cell sorting (FACS). […] Cells were cotransfected with a plasmid encoding the tomato fluorescent protein and either methylated or unmethylated pEGFP-N1, and the tomato-positive population was analyzed for GFP expression. For measurement of J-Lat activation, cells were infected with undiluted virus and analyzed by flow cytometry 2 days post-infection.
Cell fluorescence was measured with the fluorescence activated cell sorter FACSCalibur or LSRII (BD Biosciences). Cell sorting was performed with the fluorescence activated cell sorting (FACS) Vantage DiVa (BD Biosciences). To phenotype CD4^+ T cells, the cells were stained with the following monoclonal antibodies (mAbs): phycoerythrin-conjugated (PE)—anti-CD4, TC—anti-CD45RA, or PE—anti-CXCR4 (Caltag). Flow cytometry and sorting data were analyzed with FlowJo software (Treestar) or Cellquest (BD Biosciences), in the case of primary cells. Analysis was restricted to the live population, as defined by the forward versus side scatter profile. Flowjo transforms fluorescence plots to a linear scale at the origin, permitting intelligible display of cells with low fluorescence.

HIV-1 CpG island 2 = test: Chromatin immunoprecipitation of factor recruitment to the HIV-1 provirus in J-Lat 6.3
Description: as §1
ChIP was performed as described previously with modifications. J-Lat 6.3 cells Cells were diluted to 5×10^5 per ml, lysed, and sonicated (Model 500 Ultrasonic Dismembranator, Fisher Scientific). Lysates were incubated overnight with 5 μg of antibody against MBD2 (Upstate Cell Signaling Solutions cat. 07-198), HDAC2 (Santa Cruz Biotechnology cat. sc-7899) or Sp1 (Santa Cruz Biotechnology cat. sc-59). Immune complexes were recovered by incubation for 1 h with protein A agarose beads (Invitrogen). Immunoprecipitated DNA was quantified by quantitative PCR using the 7900HT Sequence Detection System (Applied Biosystems) and 2× Hot Sybr real time PCR kit (Molecular Cloning Laboratories). Negative control DNA was assayed using 5USBACT and 3USBACT as primers, CpG island 1 was assayed using oSK92 (5′-[…]-3′) (SEQ ID NO:23) and oSK93 (5′-[…]-3′) (SEQ ID NO:24) as primers, and CpG island 2 was assayed using oSK89 (5′-[…]-3′) (SEQ ID NO:25) and oSK90 (5′-[…]-3′) (SEQ ID NO:26) as primers. SDS 2.3 software (Applied Biosystems) was used to analyze precipitated DNA relative to input and to confirm the specificity of each PCR reaction by melting curve analysis.

latent HIV-1 [2] = test: Latent HIV-1 reactivation in a polyclonal population of latently infected Jurkat T cells, GFP by flow cytometry; details: about two months after infection
Description: as §1
J-Lat cells were transfected by electroporation using Kit R and program O-28 (Amaxa Biosystems). […] Three days post-infection, GFP-negative and -positive cell populations were isolated by fluorescence-activated cell sorting (FACS). […] Cells were cotransfected with a plasmid encoding the tomato fluorescent protein and either methylated or unmethylated pEGFP-N1, and the tomato-positive population was analyzed for GFP expression. For measurement of J-Lat activation, cells were infected with undiluted virus and analyzed by flow cytometry 2 days post-infection.
Cell fluorescence was measured with the fluorescence activated cell sorter FACSCalibur or LSRII (BD Biosciences). Cell sorting was performed with the fluorescence activated cell sorting (FACS) Vantage DiVa (BD Biosciences). […]

HIV-1 CpG islands = test: Bisulfite-mediated methylcytosine mapping of HIV-1 in J-Lat 6.3; details: depending on the CpG analyzed, 30 h treatment
Description: as §1
Sodium bisulfite treatment was performed according to the Pikaard protocol (on the internet at http://followed by www(dot)biology(dot)wustl(dot)edu/pikaard/PDFs and protocol files/bisulfite sequencing(dot)pdf) with minor modifications. Jurkat T cell DNA was digested overnight with Pst I and purified with the Qiaquick PCR Purification Kit (Qiagen). Bisulfite-treated DNA was amplified in nested PCR reactions with the following reaction conditions: denature (95° C., 5 minutes), cycle 35 times (95° C., 30 seconds then 60° C., 60 seconds), and extend (60° C., 7 minutes). […] Nucleotide sequence was determined of at least nine cloned inserts using the universal M13 reverse primer. The efficiency of sodium bisulfite conversion was calculated using the Quantification Tool for Methylation Analysis (QUMA) software.

Row | Compound | HIV-1 transcription in the presence of cycloheximide (HIV-1 transcription) | Reactivation of latent HIV-1, MFI, fold greater than PBS control (latent HIV-1 [1]; J-Lat cell line 6.3) | Reactivation of latent HIV-1, MFI, fold greater than PBS control (latent HIV-1 [1]; J-Lat cell line 8.4) | Reactivation of latent HIV-1, MFI, fold greater than PBS control (latent HIV-1 [1]; J-Lat cell line 9.2) | Reactivation of latent HIV-1, MFI, fold greater than PBS control (latent HIV-1 [1]; J-Lat cell line 15.4) | Effect on HIV-1 gene expression (mean fluorescence intensity or proportion of GFP-positive cells) (latent HIV-1 [1]; J-Lat lines 6.3, 8.4, 9.2 and 15.4) | HDAC2 recruitment to CpG island 2 (HIV-1 CpG island 2) | MBD2 recruitment to CpG island 2 (HIV-1 CpG island 2) | Sp1 recruitment to CpG island 2 (HIV-1 CpG island 2) | Proportion of cells with active virus, fold greater (latent HIV-1 [2]) | Decrease in methylation (HIV-1 CpG islands) | GFP expression after treatment of J-Lat cells with TNF-α (latent HIV-1 [1]; 40 ng/ml cycloheximide) | Reactivation of latent virus (latent HIV-1 [1]; J-Lat A2 (HIV-derived vector encoding only viral promoter and Tat))
1 | Nc1ncn([C@H]2C[C@H](O)[C@@H](CO)O2)c(=O)n1 [Aza-CdR, 5-aza-2′ deoxycytidine] | still induced HIV-1 transcription | 1.8 fold | 1.6 fold | 1.1 fold | 1 fold | little effect | lost | eliminated | increased Sp1 recruitment | two-fold greater proportion of cells with active virus | ≤ 50% |  | 
2 | C[C@@H]1C[C@@H]([C@H](O)CC2CC(=O)NC(=O)C2)C(=O)[C@@H](C)C1 [Cycloheximide, cycloheximide] |  |  |  |  |  |  |  |  |  |  |  | inhibition of GFP expression | 
3 | TNF-a |  | 7.1 fold | 2.5 fold | 2.3 fold | 1.7 fold |  |  |  |  | 1.5 fold |  |  | reactivated the majority of latent virus
